Test results: patent US5716627A, “Skin care compositions containing fatty acid amides, azoles, and retinol or retinyl ester” (Elizabeth Arden Co., Division of Conopco, Inc., priority 1996, dated 1998)

Columns and labels:
Human keratinocytes = assay: 3H-thymidine incorporation by cultured keratinocytes (keratinocyte proliferation); assay type: cell-based
Description: Human keratinocytes, isolated from neonatal foreskin by trypsin treatment were grown in Dulbecco Modification Eagle (DME) Hams F12 (1:1) medium/10% fetal calf serum in the presence of irradiated 3T3 mouse fibroblasts for establishing dividing keratinocyte colonies. Cells were grown under the above condition until their second passage and kept frozen for future use. […] On day 7, when the cells were 80-90% confluent, they were trypsinized and plated in the serum-free medium for the various experiments.
The incorporation of ^3 H-thymidine by cultured keratinocytes was used as an assay of keratinocyte proliferation. Thymidine is one of four deoxynucleosides which are the monomeric units of DNA, the universal library of genetic information in the animal kingdom. Prior to cell division of a somatic cell such as a keratinocyte, the complete genome of the cell undergoing cell division is replicated. This involves large scale DNA synthesis by the cell and enables both daughter cells to receive identical copies of the genetic material. When ^3 H-thymidine is included in the culture media of keratinocytes which are synthesizing DNA in preparation for cell division then the labelled nucleoside is incorporated into the newly synthesized DNA. The extent of incorporation of ^3 H-thymidine into a population of cells is proportional to the rate of DNA synthesis by this population of cells and therefore an indication of their cellular proliferation.
Keratinocytes (that were cultured as described above) were plated in 24 well plates at a density of 40,000 cells per well in 1 ml media. After incubation for four days or until the cells were 60-70% confluent, the media was changed. Test compounds were added (in triplicate) to the wells 24 hours after the media change, and four hours later 1 μCi ^3 H-Thymidine in 50 μl media was added per well. Cells were incubated for a further 24 hours. Media was removed from the cells, 10% ice cold trichloroacetic acid (TCA) added and plates were incubated on ice for 30 minutes. Cells were washed five times with 5% TCA and allowed to dissolve in 500 μl 0.1M NaOH for at least one hour (usually overnight). The preparations were neutralized with 0.1M HCl; 50 μl of the cell preparation was used to determine total protein content. Disintegrations per minute (DPM) from ^3 H labelling of DNA was determined by liquid scintillation counting of 900 μl of the cell preparation. Thymidine incorporation results were expressed as DPM/μg protein.

TGase I = assay: Transglutaminase (TGase I) ELISA in cultured keratinocytes, normalized to DNA content (keratinocyte differentiation); assay type: cell-based, human; conditions: for Mean TGase/DNA X 10^-4 ± S.D.: n = 3
Description: Human keratinocytes, isolated from neonatal foreskin by trypsin treatment were grown in Dulbecco Modification Eagle (DME) Hams F12 (1:1) medium/10% fetal calf serum in the presence of irradiated 3T3 mouse fibroblasts for establishing dividing keratinocyte colonies. Cells were grown under the above condition until their second passage and kept frozen for future use. Frozen second passage keratinocytes were thawed and plated into the above medium and grown for five days before they were switched to a serum-free MCDB 153-based medium keratinocyte growth medium (KGM) from Clonetics Corporation, San Diego, Calif., containing 0.15 mM Ca, or keratinocyte serum-free media (KSFM) from GIBCO containing 0.09 mM Ca). On day 7, when the cells were 80-90% confluent, they were trypsinized and plated in the serum-free medium for the various experiments.
During the process of terminal differentiation in the epidermis, a 15 nm thick layer of protein, known as the cornified envelope (CE) is formed on the inner surface of the cell periphery. The CE is composed of numerous distinct proteins which have been cross-linked together by the formation of N^ε -(γ-glutamyl) lysine isodipeptide bonds catalyzed by the action of at least two different transglutaminases (TGases) expressed in the epidermis. TGase I is expressed in abundance in the differentiated layers of the epidermis, especially the granular layer, but is absent in the undifferentiated basal epidermis. Thus TGase I is a useful marker of epidermal keratinocyte differentiation with high TGase I levels indicating a more differentiated state. An ELISA based TGase I assay, using a TGase I antibody, was used to assess the state of differentiation of the cultured keratinocytes in the examples that follow.
Keratinocytes (cultured as described above) were plated in 96 well plates at a density of 3,000 cells per well in 200 μl media. After incubation for four days the media was changed to media containing test compounds (six replicates per test). The cells were cultured for a further 72 hours after which time the media was aspirated and the plates stored at -70° C. Plates were removed from the freezer, and the cells washed with PBS. 100 μl sterile water was added and the cells were freeze fractured by freezing at -70° C. then thawing. The cells were incubated for one hour at room temperature (R/T) with PBS/3% BSA (wash buffer, bovine serum albumin), then rinsed with a fresh aliquot of wash buffer. Cells were incubated with 50 μl of primary antibodies monoclonal anti-human transglutaminase (IgG) obtained from Amersham (mouse) diluted 1:300 in wash buffer for one hour, 37° C. then rinsed two times with wash buffer. Cells were then incubated with 50 μl of secondary antibody (Feb fragment, peroxidase conjugated anti-mouse IgG obtained from Amersham) diluted 1:200 in wash buffer for one hour at 37° C., then rinsed two times with wash buffer. Cells were incubated with substrate solution (4 mg o-phenylene diamine and 3.3 μl 30% H2 O2 in 10 ml 0.1M citrate buffer pH 5.0) for five minutes, R/T, in darkness (under aluminum foil). The reaction was stopped by the addition of 50 μl 4N H2 SO4. The absorbance of samples was read at 492 nm in the plate reader. Out of the six replicates, four were treated with both antibodies, two were treated only with the secondary antibody (i.e., to determine background binding of enzyme conjugated Ab). TGase levels were determined by subtracting background from the readings from each treatment and determining mean ±s.d. for the replicates exposed to both Ab.
The level of TGase-1 detected after treatment of the cells could be influenced by cell number, i.e., the greater the number of cells the greater the level of TGase-1 detected. The level of TGase-1 was normalized to DNA content of the cells in the same well thus eliminating variation due to differences in cell number. […]

[1] = Examples 1-4, overall conclusion

`CC1=C(/C=C/C(C)=C/C=C/C(C)=C/CO)C(C)(C)CCC1` [ROH, retinol] was tested, and the “effect on keratinocyte proliferation (in words)” value (Human keratinocytes; [1]) was “completely ineffective at increasing keratinocyte proliferation”, the “Thymidine incorporation (% control)” value (Human keratinocytes; Table 1A, 2.5 × 10^-7 M, 24 hours, 0.25 µM) was 106% and the “mean Thymidine incorp./μg protein ± s.d” value (Human keratinocytes; Table 1A, 2.5 × 10^-7 M, 24 hours, n = 3) was 2218 ± 73 DPM/μg protein. For the same molecule, the “Thymidine incorporation (% control)” value (Human keratinocytes; Table 1A, 2.5 × 10^-8 M, 24 hours, 0.025 µM) was 97%, the “mean Thymidine incorp./μg protein ± s.d” value (Human keratinocytes; Table 1A, 2.5 × 10^-8 M, 24 hours, n = 3) was 2034 ± 46 DPM/μg protein and the “Thymidine incorporation (% control)” value (Human keratinocytes; Table 1A, 2.5 × 10^-9 M, 24 hours, 0.0025 µM) was 94%. The “mean Thymidine incorp./μg protein ± s.d” value (Human keratinocytes; Table 1A, 2.5 × 10^-9 M, 24 hours, n = 3) was 1977 ± 19 DPM/μg protein, the “Thymidine incorporation (% control)” value (Human keratinocytes; Table 2A, 2.5 × 10^-9 M RA or ROH, with 10^-8 M LADEA and/or 10^-9 M Bifonazole where named, 24 hours) was 111% and the “mean Thymidine incorp. μg protein ± s.d” value (Human keratinocytes; Table 2A, 2.5 × 10^-9 M RA or ROH, with 10^-8 M LADEA and/or 10^-9 M Bifonazole where named, 24 hours, n = 3) was 4856 ± 217 DPM/μg protein. For the same molecule, the “Thymidine incorporation (% control)” value (Human keratinocytes; Table 3A, 2.5 × 10^8 M [sic] ROH, with 10^8 M LADEA and/or 10^9 M Climbazole where named, 1440 min) was 102%, the “mean Thymidine incorp/μg protein ± s.d” value (Human keratinocytes; Table 3A, 2.5 × 10^8 M [sic] ROH, with 10^8 M LADEA and/or 10^9 M Climbazole where named, n = 3) was 3788 ± 57 DPM/μg protein and the “Thymidine incorporation (% control)” value (Human keratinocytes; Table 4, 2.5 × 10^9 M [sic] RA or ROH, with 10^8 M LAMEA and/or 10^8 M Clotrimazole where named, 24 hours) was 113%. The “mean Thymidine incorp/μg protein ± s.d, normalized to control” value (Human keratinocytes; Table 4, 2.5 × 10^9 M [sic] RA or ROH, with 10^8 M LAMEA and/or 10^8 M Clotrimazole where named, 24 hours, n = 3) was 1.13 ± 0.09, the “effect on transglutaminase level / keratinocyte differentiation (in words)” value (TGase I; Example 1, 2.5×10^-7 M, 2.5×10^-8 M and 2.5×10^-9 M) was “dose dependent” and the “effect on keratinocyte TG1 level / differentiation (in words)” value (TGase I; Example 2, 2.5×10^-8 M RA or retinol, 10^-8 M LAMEA, 10^-8 M bifonazole, 72 hour) was “Neither 2.5×10^-8 M retinol nor 10^-8 M LAMEA+10^-8 M bifonazole had an inhibitory effect on the keratinocyte TG1 level”. The “effect on keratinocyte TG1 level / differentiation (in words)” value (TGase I; Example 3, 2.5×10^-7 M RA, 2.5×10^-9 M retinol with 10^-8 M LADEA and/or climbazole, 72 hour) was “no inhibitory effect on the keratinocyte TG1 level”, the “effect on keratinocyte differentiation (in words)” value (TGase I; [1]) was “significantly less effective than retinoic acid at inhibiting keratinocyte differentiation” and the “TGase/DNA (% Control)” value (TGase I; Table 1B, 2.5 × 10^-7 M, 72 hours, 0.25 µM) was 47%. For the same molecule, the “Mean TGase/DNA X 10^-4 ± S.D.” value (TGase I; Table 1B, 2.5 × 10^-7 M, 72 hours) was 1.14 ± 0.22 X 10^-4, the “TGase/DNA (% Control)” value (TGase I; Table 1B, 2.5 × 10^-8 M, 72 hours, 0.025 µM) was 77% and the “Mean TGase/DNA X 10^-4 ± S.D.” value (TGase I; Table 1B, 2.5 × 10^-8 M, 72 hours) was 1.89 ± 0.30 X 10^-4. For the same molecule, the “TGase/DNA (% Control)” value (TGase I; Table 1B, 2.5 × 10^-9 M, 72 hours, 0.0025 µM) was > 100%, the “Mean TGase/DNA X 10^-4 ± S.D.” value (TGase I; Table 1B, 2.5 × 10^-9 M, 72 hours) was 2.70 ± 0.59 X 10^-4 and the “TGase/DNA (% Control)” value (TGase I; Table 2B and Example 2B text, 2.5×10^-8 M RA or retinol, 10^-8 M LAMEA, 10^-8 M bifonazole where named, 72 hour) was 84%. The “mean TGase/DNA × 10^-4 ± s.d” value (TGase I; Table 2B, 2.5 × 10^8 M [sic] RA or ROH, 10^8 M LA-MEA, 10^8 M Bifonazole where named, 72 hour, n = 6) was 0.111 ± 0.023 × 10^-4, the “TGase/DNA (% Control)” value (TGase I; Table 3B and Example 3B, 2.5×10^-9 M RA or ROH, with 10^-8 M LADEA and/or 10^-8 M climbazole where named, 72 hour) was 129% and the “mean TGase/DNA × 10^4 ± s.d” value (TGase I; Table 3B, 2.5 × 10^9 M [sic] RA or ROH, with 10^8 M LA-DEA and/or 10^8 M Climbazole where named, 72 hour, n = 6) was 1.96 ± 0.33 × 10^4.
